Results from BindingDB's records for patent US20250304563 (Orum Therapeutics, 2025).

Biological target: T1, Isoform Truncated 1 of E3 ubiquitin-protein ligase CBL-B [36-427] (Homo sapiens, UniProt Q13191)
T1 construct: 36-427
Test: Binding Affinity of Example 1 Compounds to Cbl-b Protein
Description: Compounds were assessed for binding activity to Cbl-b by their ability to compete with and displace a probe comprised of BODIPY-FL fluorophore conjugated to a Cbl-b inhibitor (see Example 54 in WO2020264398). In the assay, a 36-427 aa truncated form of Cbl-b with an N-terminus Avi-tag was incubated 20 mM HEPES pH 7.5, 150 mM NaCl, 0.01% Triton X-100, 0.1% BSA, 0.5 mM TCEP buffer with streptavidin-terbium (Cisbio). After one hour of incubation at room temperature, 1 uM each of fluorescent probe and compound were combined with the reaction mixture. Compounds with Cbl-b binding activity competitively displace the fluorophore tagged inhibitor thereby disrupting the FRET signal from the terbium-BODIPY-FL complex. The reaction mixtures were incubated for one additional hour at room temperature to allow for competition between inhibitor and candidate compounds to occur. The time resolved FRET (TR-FRET) signal was then read at 520/620 […] ([…]) using a Spectramax M5e plate reader (Molecular Devices) to measure probe displacement. Compounds with Cbl-b binding activity had decreased FRET signal owing to disruption of the terbium-BODIPY-FL FRET complex. Standard methods in PRISM were used to calculate the compound IC50 values from the experimental data.

IC50: in the range around 12.5 nM
Compound: CCSc1cc(C2(Cc3nncn3C)COC2)cc(N2CC3C(C(N)=O)=CC(CN4CCC[C@H](C)C4)=CC3C2=O)n1 (stereo partly specified) [US20250304563, Compound 145]
